Data published in patent US20100279918A1, “Chimeric Constructs Between Cancer-Homing Peptides and Cell-Penetrating Peptides Coupled to Anticancer Drugs and/or Diagnostic Agent/Agents” (Burnham Institute for Medical Research, priority 2006, published 2010).
Entries after “also recorded” stand apart in the source; their conditions may differ. Like-named read-outs stand apart in the source and are kept apart here. Where a SMILES comes first, the peptide text is derived from it. Bridges are numbered along the chain shown (N, C = ends). The star is where a group is joined. Chlorambucil = O=C(CCCc1ccc(N(CCCl)CCCl)cc1)*

Legend:
[1] = test system: MCF-7 cells; experiment: Toxicity study (CellTiter-Glo)
Experimental: FIG. 11. Cytotoxicity study of pVEC (SEQ ID NO:6) in MCF-7 cell line. Cells were exposed to different concentrations of pVEC solution in 150 μl of 1% FBS containing media and incubated for 2 h or 48 h at 37° C. The plate was cooled to room temperature, CellTiter-Glo® Reagent (150 μl) was added and the luminescence was measured. The percent of viable cells was compared to the non-treated cells.
FIG. 12. Cytotoxicity study of Cbl and Cbl conjugated peptides in MCF-7 cell line. Cells were exposed to different concentrations of Cbl, Cbl-pVEC (SEQ ID NO:6), Cbl-CREKA-pVEC (SEQ ID NO:22) and Cbl-PEGA-pVEC (SEQ ID NO:21) (0, 1, 5, 55, 100, 150, 200, 400 and 800 (only with Cbl) μM) solution in 150 μl of 1% FBS containing complete media and incubated for 3 h at 37° C. After that 150 μl of 10% FBS containing media was added and the cells were incubated additionally for 45 h at 37° C. (altogether 48 h). The plate was cooled to room temperature, CellTiter-Glo® Reagent (150 μl) was added and the luminescence was measured. The percent of viable cells was compared to the non-treated cells. IC50 values were calculated using GraphPad Prism 4 software.
MCF-7 and MDA-MB-231 cells (20 000 cells/well) were seeded in a 48 well plate two days before the experiment. The cells were exposed to drug in different concentration in full media containing 1% FBS for 3 h where after 10% FBS containing full media was added to achieve 5% FBS containing media and then incubated 45 or 69 h at 37° C. The plate was cooled to room temperature and CellTiter-Glo® Reagent (Promega) was added. The plate was incubated for 10 min at room temperature where after the luminescence was measured.

[2] = test system: MDA-MB-231 cells; experiment: Toxicity study (CellTiter-Glo); assay type: cell-based, human
Experimental: FIG. 13. Cytotoxicity study of Cbl and Cbl conjugated peptides in MDA-MB-231 cell line. […] (altogether 48 h). […] IC50 values were calculated using GraphPad Prism 4 software.

[3] = test system: tumor mice; settings: about 300 μg per mouse for 15 days; cited from earlier work
[4] = test system: MDA-MB-435 orthotopic xenograft tumors; experiment: Treatment of mice bearing MDA-MB-435 tumors with Cbl-peptide conjugates (tumor growth); assay type: in vivo, nude Balb/c mice; settings: 15 μg Cbl-equivalent/mouse i.v. every other day, seven times; p<0.01 vs controls
Experimental: FIG. 26. The inhibition of MDA-MB-435 tumor growth in mice with the Cbl-CREKA-pVEC (SEQ ID NO:22) conjugates. The MDA-MB-435 orthotopic xenografted mice (8 mice/group) were systemically treated with 15 μg of Cbl equivalent of Cbl-CREKA-pVEC (SEQ ID NO:22) and of the controls.
The orthotopic xenografted breast tumors were established by injecting 1×10^6 MDA-MB-435 human breast cancer cells into the mammary fat pad of nude Balb/c mice. Treatment started when mean tumor volumes reached about 100 mm^3. Mice with size-matched tumors were randomized into five groups (eight animals per group): Cbl-CREKA-pVEC (SEQ ID NO:22), Cbl plus CREKA-pVEC, Cbl-CREKA (SEQ ID NO:1), Cbl-pVEC (SEQ ID NO:6) and PBS. Mice were treated intravenously with 15 μg of Cbl-equivalent/mouse every other day for seven times. Tumor size was measured every three days. The mice were monitored for weight loss. The animal experiments reported here were approved by the Animal Research Committee of Burnham Institute for Medical Research.

[5] = read-out: IC50 value (cytotoxicity), MCF-7, 3 h in 1% FBS media, then 45 h (altogether 48 h)
[6] = MDA-MB-231, 3 h in 1% FBS media, then 45 h (altogether 48 h), read-out: IC50 value (cytotoxicity)

SMILES | IC50 ([1]; Homo sapiens, MCF7, read-out: IC50 value (cytotoxicity)) | IC50 ([2]; Homo sapiens, MDA-MB-231, read-out: IC50 value (cytotoxicity)) | ED15d dose [3] | IC50 [1, 5] | IC50 [2, 6] | inhibition of tumor growth compared with control groups [4]
O=C(O)CCCc1ccc(N(CCCl)CCCl)cc1 [Cbl, reference compound] | 128 µM | 164 µM | 15 mg/kg |  |  | 
CC[C@H](C)[C@H](NC(=O)[C@H](CCCNC(=N)N)NC(=O)[C@H](CCCNC(=N)N)NC(=O)[C@H](CCCNC(=N)N)NC(=O)[C@H](CC(C)C)NC(=O)[C@@H](NC(=O)[C@@H](NC(=O)[C@H](CC(C)C)NC(=O)[C@H](CC(C)C)NC(=O)[C@H](C)NC(=O)[C@H](CCCCN)NC(=O)[C@H](CCC(=O)O)NC(=O)[C@H](CCCNC(=N)N)NC(=O)[C@H](CS)NC(=O)CCCc1ccc(N(CCCl)CCCl)cc1)[C@@H](C)CC)[C@@H](C)CC)C(=O)N[C@@H](CCCNC(=N)N)C(=O)N[C@@H](CCCCN)C(=O)N[C@@H](CCC(N)=O)C(=O)N[C@@H](C)C(=O)N[C@@H](Cc1c[nH]cn1)C(=O)N[C@@H](C)C(=O)N[C@@H](Cc1c[nH]cn1)C(=O)N[C@@H](CO)C(=O)N[C@@H](CCCCN)C(N)=O [Cbl-CREKA-pVEC] (Chlorambucil-CREKALLIILRRRIRKQAHAHSK-NH2) |  |  |  | 10.5 µM | 8.2 µM | significant decrease in tumor growth; also recorded: significant inhibition of tumor growth
CC[C@H](C)[C@H](NC(=O)[C@H](CCCNC(=N)N)NC(=O)[C@H](CCCNC(=N)N)NC(=O)[C@H](CCCNC(=N)N)NC(=O)[C@H](CC(C)C)NC(=O)[C@@H](NC(=O)[C@@H](NC(=O)[C@H](CC(C)C)NC(=O)[C@H](CC(C)C)NC(=O)[C@@H]1CSSC[C@H](NC(=O)CCCc2ccc(N(CCCl)CCCl)cc2)C(=O)N2CCC[C@H]2C(=O)NCC(=O)N2CCC[C@H]2C(=O)N[C@@H](CCC(=O)O)C(=O)NCC(=O)N[C@@H](C)C(=O)NCC(=O)N1)[C@@H](C)CC)[C@@H](C)CC)C(=O)N[C@@H](CCCNC(=N)N)C(=O)N[C@@H](CCCCN)C(=O)N[C@@H](CCC(N)=O)C(=O)N[C@@H](C)C(=O)N[C@@H](Cc1c[nH]cn1)C(=O)N[C@@H](C)C(=O)N[C@@H](Cc1c[nH]cn1)C(=O)N[C@@H](CO)C(=O)N[C@@H](CCCCN)C(N)=O [Cbl-PEGA-pVEC] (Chlorambucil-CPGPEGAGCLLIILRRRIRKQAHAHSK-NH2; disulfide 1-9) |  |  |  | 29.9 µM | 37.4 µM | 
